As usually defined, the EC50 is the concentration needed to bring the measured effect to its halfway point. Broadly, the AC50 is the concentration at which the activity in the assay is half-maximal.

A short description of series [1]: inhibitors of intracellular T. cruzi replication, confirmation, NIH3T3 host cells, beta-gal luminescence (AID 2044).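 Note: intracellular parasites grown in NIH/3T3 mouse fibroblasts as host cells; luminescent beta-galactosidase reporter signal from transgenic T. cruzi replicating inside host cells; inhibitors lower the luminescence signal.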 It counts as functional, cell-based.
A short description of series [2]: cytotoxicity toward NIH3T3 fibroblasts, dose response, counter-screen, cell-based, ATP luminescence, mouse fibroblasts (AID 2010).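 Note: cells exposed to compound for about 90 hours before reading.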 Format: functional. For orientation: Counterscreens check selectivity or assay interference.
A further series has as its target Cytochrome P450 2C9 (Homo sapiens, UniProt P11712).
Another series deals with Cytochrome P450 3A4 (Homo sapiens, UniProt P08684).
For a further series, the target named is Cytochrome P450 2C19 (Homo sapiens, UniProt P33261). The series can be described thus: Cytochrome panel assay with activity outcomes. Panel member name: p450-cyp2c19 Compounds with AC50 equal or less than 10 uM are considered active. Format: functional.
The target in a further series is Cytochrome P450 2D6 (Homo sapiens, UniProt P10635).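 Note: CYP2D6 member of a cytochrome P450 panel assay.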
Another series has as its system INS1. Kind of series: beta cell apoptosis inhibitors, cytokine rescue, dose response, luminescence, retest (AID 449756).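 Note: cell death triggered by IL-1 beta plus TNF-alpha plus IFN-gamma mixture; protective hits raise ATP signal compared with cytokine alone wells.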 To be noted: Rattus norvegicus. It counts as functional, cell-based.
The subject of series [3] is Streptococcus sp. 'group A'. The series can be described thus: growth inhibition of control SK(-) GAS strain, dose response, counter-screen for streptokinase expression inhibitor project, luminescence, kanamycin, BacTiterGlo, confirmation (AID 1900). Format: functional, organism-based.
The test system of a further series is Streptococcus. The series can be described thus: Group A Streptococcus viability loss, dose response, counter-screen for streptokinase expression inhibitor project, luminescence, BacTiterGlo (AID 1915).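 Note: potency for reduction of bacterial viability or growth.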 It counts as functional, organism-based.

Values joined by “and” are separate entries in the source; they are usually repeats but may differ in a detail not shown here. Equal values may be shown once. Active and inactive are the calls of the source.

Chain of Cytochrome P450 2C9 (P11712 whole entry): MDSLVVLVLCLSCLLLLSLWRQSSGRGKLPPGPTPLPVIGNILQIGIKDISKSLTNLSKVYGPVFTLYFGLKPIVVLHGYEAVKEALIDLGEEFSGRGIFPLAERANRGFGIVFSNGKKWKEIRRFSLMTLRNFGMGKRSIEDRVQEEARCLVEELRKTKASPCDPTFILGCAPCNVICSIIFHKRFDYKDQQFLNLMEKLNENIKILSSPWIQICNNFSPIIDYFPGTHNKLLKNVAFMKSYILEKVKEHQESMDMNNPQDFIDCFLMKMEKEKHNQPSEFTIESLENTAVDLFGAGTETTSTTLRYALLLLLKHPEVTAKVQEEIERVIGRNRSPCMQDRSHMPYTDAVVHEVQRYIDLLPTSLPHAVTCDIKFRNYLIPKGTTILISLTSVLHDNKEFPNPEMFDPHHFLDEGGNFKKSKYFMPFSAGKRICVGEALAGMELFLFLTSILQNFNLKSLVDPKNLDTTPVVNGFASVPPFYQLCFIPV
Chain of Cytochrome P450 2D6 (P10635 whole entry): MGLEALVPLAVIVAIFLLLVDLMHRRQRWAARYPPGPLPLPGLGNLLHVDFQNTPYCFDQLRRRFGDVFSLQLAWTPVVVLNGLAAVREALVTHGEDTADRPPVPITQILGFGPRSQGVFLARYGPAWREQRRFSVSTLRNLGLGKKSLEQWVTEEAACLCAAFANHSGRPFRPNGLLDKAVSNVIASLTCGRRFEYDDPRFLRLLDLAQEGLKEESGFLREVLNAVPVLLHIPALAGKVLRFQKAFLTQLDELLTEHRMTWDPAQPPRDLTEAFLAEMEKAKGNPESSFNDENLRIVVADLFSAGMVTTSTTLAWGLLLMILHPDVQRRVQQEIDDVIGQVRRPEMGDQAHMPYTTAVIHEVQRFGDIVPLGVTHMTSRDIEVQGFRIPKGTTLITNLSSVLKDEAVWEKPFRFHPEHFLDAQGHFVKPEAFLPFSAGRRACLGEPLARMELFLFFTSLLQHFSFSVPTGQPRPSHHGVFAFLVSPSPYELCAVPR
Chain of Cytochrome P450 2C19 (P33261 whole entry): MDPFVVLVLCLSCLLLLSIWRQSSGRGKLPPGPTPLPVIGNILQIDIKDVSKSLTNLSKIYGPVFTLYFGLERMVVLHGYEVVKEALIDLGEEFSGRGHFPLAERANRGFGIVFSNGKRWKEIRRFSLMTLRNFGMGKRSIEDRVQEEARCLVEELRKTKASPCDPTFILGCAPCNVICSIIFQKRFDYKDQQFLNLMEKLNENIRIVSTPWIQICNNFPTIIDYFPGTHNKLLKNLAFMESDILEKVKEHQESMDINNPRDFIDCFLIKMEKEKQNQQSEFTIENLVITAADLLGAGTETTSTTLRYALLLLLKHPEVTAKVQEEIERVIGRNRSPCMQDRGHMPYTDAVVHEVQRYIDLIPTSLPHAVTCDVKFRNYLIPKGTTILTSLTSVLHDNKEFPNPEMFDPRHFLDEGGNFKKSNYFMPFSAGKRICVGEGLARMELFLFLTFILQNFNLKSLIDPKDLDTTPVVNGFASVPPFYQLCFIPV
Chain of Cytochrome P450 3A4 (P08684 whole entry): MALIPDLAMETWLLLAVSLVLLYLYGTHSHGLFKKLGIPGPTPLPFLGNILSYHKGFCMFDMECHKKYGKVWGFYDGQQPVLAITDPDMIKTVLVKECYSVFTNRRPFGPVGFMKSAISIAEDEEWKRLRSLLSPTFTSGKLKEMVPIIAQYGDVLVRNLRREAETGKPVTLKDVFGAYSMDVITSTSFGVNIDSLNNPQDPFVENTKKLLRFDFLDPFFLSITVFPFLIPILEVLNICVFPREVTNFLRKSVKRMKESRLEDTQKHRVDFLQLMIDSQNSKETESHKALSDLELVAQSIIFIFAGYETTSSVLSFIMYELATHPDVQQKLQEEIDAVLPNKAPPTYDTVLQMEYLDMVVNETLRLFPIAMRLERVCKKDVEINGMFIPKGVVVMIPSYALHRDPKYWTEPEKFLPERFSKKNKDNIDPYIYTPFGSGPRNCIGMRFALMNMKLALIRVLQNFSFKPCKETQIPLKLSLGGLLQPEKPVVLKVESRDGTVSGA

With `CCN(C(=O)c1cc2c(O)nc3ccc(C)cc3c2s1)c1cccc(C)c1`, the EC50 in [1] was 0.708 µM (active); in series [2], > 60 µM (inconclusive).
For the molecule `CCC(=O)Nc1ccc(C(=O)CSc2nnc(-c3ccc(O)cc3)n2CC2CCCO2)cc1OC` (stereo not drawn), the AC50 at Cytochrome P450 2C9 is 15.8 µM (inconclusive).
`c1ccc(CNc2cc(-c3ccoc3)ncn2)cc1`: the AC50 on Cytochrome P450 3A4 is 12.6 µM (inconclusive).
`COCC1CCCCN1Cc1c[nH]nc1-c1ccc2cc(OC)ccc2c1` (stereo not drawn): the values for the EC50 in series [1] and in series [2] were 0.679 µM (active) and > 60 µM (not active), respectively.
For the molecule `Clc1ccc(-c2nnc(-c3cccc4ccccc34)o2)cc1Cl`, on Cytochrome P450 2C19, the AC50 entry is “inconclusive”.
As for `O=C(c1ccco1)N1CCC[C@@]2(CCN(Cc3ccccc3)C2)C1`, the AC50 at Cytochrome P450 3A4 was 20 µM (inconclusive).
With `O=C(CSc1ccccc1)Nc1ccc(N2CCN(c3ccccc3)CC2)c(F)c1`, the AC50 at Cytochrome P450 2C19 (read-out: AC50) is 39.8 µM (inconclusive); on Cytochrome P450 2C9 it was 0.447 µM (inconclusive).
`C[n+]1ccc(/C=C/c2ccc(Br)cc2)cc1`: the AC50 on Cytochrome P450 2C19 (read-out: AC50) was 3.98 µM (inconclusive).
Turning to `C[C@@H]1O[C@@H](O)[C@@H](O)[C@H](O)[C@H]1O`, the AC50 result at Cytochrome P450 2C19 was “inconclusive”.
Consider `CCOc1ccc(N(CC(=O)NCCC2=CCCCC2)S(=O)(=O)c2ccccc2)cc1`, for which the EC50 in series [1] is 2.58 µM (active); in series [2] it was 10.6 µM (active).
Regarding `Cc1cc(C)c(S(=O)(=O)c2ccc(F)cc2C)c(Cl)n1`, the results for the EC50 in [1] and in series [2] were 0.867 µM (active) and > 60 µM (not active), respectively.
On to `Cc1noc(C)c1-c1nccc(NCc2ccccc2)n1`, for which the AC50 on Cytochrome P450 2D6 is 39.8 µM (inconclusive).
Take `CC(=O)N1N=C(c2cccc([N+](=O)[O-])c2)OC1c1ccccc1Cl` (stereo not drawn): at Cytochrome P450 3A4, the AC50 is 39.8 µM (inconclusive).
`O=c1c(-c2ccc(Cl)cc2)nc2cnc(N3CCNCC3)nc2n1CCc1ccccc1`: on Cytochrome P450 3A4, the AC50 was 31.6 µM (inconclusive).
As to `COC(=O)[C@@]1(Cc2ccccc2)[C@H]2c3cc(C(=O)N(C)C)n(Cc4cc(C)n(C)n4)c3C[C@H]2CN1C(=O)c1ccccc1`, the AC50 at Cytochrome P450 2D6 was 39.8 µM (inconclusive).
On the same count and under the same terms, to `CCOC(=O)c1c(-c2ccccc2)csc1NC(=O)c1cccc(N2C(=O)CCC2=O)c1` belongs 0.0112 µM (inconclusive).
Take `O=C(CN1C(=O)COc2ccccc21)N(Cc1cccnc1)Cc1cccc(F)c1`: the EC50 in series [1] was 0.557 µM (active); in series [2], > 60 µM (not active).
Turning to `O=C(CSc1nnc(-c2ccncc2)n1Cc1ccccc1)Nc1nccs1`, the AC50 at Cytochrome P450 2D6 was 17.8 µM (inconclusive).
In the case of `Cc1cc(C(C)(C)C)cc(CNC2CCCCC2)c1O`, the AC50 on Cytochrome P450 2C9 is 7.94 µM (inconclusive).
For `CC(=O)OC[C@@H]1O[C@H](C/C=N\O[C@@H](C)c2cn([C@H](CO)Cc3ccccc3)nn2)C=C[C@@H]1OC(C)=O`, on Cytochrome P450 3A4, the AC50 is 5.01 µM (inconclusive) and 3.98 µM (inconclusive).
With `CCOC(=O)C1=C(CCc2ccccc2)NC(=O)NC1c1ccc2ccccc2c1` (stereo not drawn), the AC50 in the series with INS1 is 31.5 µM (active).
`CS(=O)(=O)N1CCC2(CCCN(Cc3ccc(C#N)cc3)C2)CC1`: on Cytochrome P450 2D6, the AC50 was 20 µM (inconclusive).
Turning to `Cc1cnc(CNc2ncncc2-c2ccccc2CN(C)C)cn1`, the half-maximal activity concentration (AC50) on Cytochrome P450 2D6 was 39.8 µM (inconclusive).
For `O=C1CN(c2nc(-c3cccnc3)nc3scc(-c4ccccc4)c23)CCN1`, the figures for the EC50 in [1] and in [2] were 4.67 µM (active) and 59.3 µM (active), respectively.
In the case of `O=C(c1ccncc1)N1CCC[C@@]2(CCN(Cc3nccs3)C2)C1`, the AC50 on Cytochrome P450 2D6 is 20 µM (inconclusive).
For `OC(COC(c1ccc(F)cc1)c1ccc(F)cc1)CN1CCc2ccccc2C1` (stereo not drawn), the AC50 with INS1 is 18.2 µM (active).
In the case of `C#CCn1c(S(=O)(=O)Cc2ccc(OC)cc2)nc(-c2ccccc2)c1-c1ccccc1`, on Cytochrome P450 2D6, the AC50 was 14.1 µM (inconclusive).
Turning to `c1cc(CCN2CCCCC2)ccn1`, the AC50 on Cytochrome P450 3A4 is 6.31 µM (inconclusive).
Consider `CCOC(=O)c1cnc(-n2nc(C)cc2C)nc1Nc1ccc(O)cc1`, for which the AC50 with INS1 is 1.67 µM (active).
On to `O=[N+]([O-])c1nn(-c2ccccc2)[n+]([O-])c1NCCc1ccccc1`, for which the EC50 in series [1] is 0.478 µM (active); in series [2] it was > 60 µM (inconclusive).
Regarding `Cc1ccc(C)c(N2CCN(CC(=O)Nc3ccc([N+](=O)[O-])cc3C(=O)Nc3ccccc3F)CC2)c1`, the EC50 is 1.19 µM (active) in [1] and > 60 µM (not active) in series [2].
`COC1=CC(=O)O[C@@H](/C=C\c2ccccc2)C1`: the AC50 on Cytochrome P450 2C19 (read-out: AC50) was 5.01 µM (inconclusive).
As for `CSc1nsc(SC)c1C(=O)Nc1ccc(C)cc1`, the AC50 on Cytochrome P450 2C9 is 15.8 µM (inconclusive).
Consider `O=C(c1csnn1)N1CCC2(CC1)CCN(c1ccncc1)CC2`, for which the AC50 was 39.8 µM (inconclusive) at Cytochrome P450 2C19 (read-out: AC50), 15.8 µM (inconclusive) at Cytochrome P450 3A4 and 15.8 µM (inconclusive) on Cytochrome P450 2C9.
With `N#Cc1c(C(F)(F)F)cc(-c2ccco2)nc1SCc1ccncc1`, the EC50 was 0.975 µM (active) in [1] and 4.74 µM (active) in series [2].
As for `O=C(Cn1ccc2ccccc2c1=O)N1CCN(c2cccc(Cl)c2)CC1`, the AC50 was 7.08 µM (inconclusive) on Cytochrome P450 2C19 (read-out: AC50) and 3.16 µM (inconclusive) at Cytochrome P450 3A4.
With `FC(F)(F)c1cccc(CN2CCC(c3cc(-c4cccs4)[nH]n3)CC2)c1`, the EC50 in series [1] is 2.31 µM (active); in series [2] it was 14.6 µM (active).
With `CCOC(=O)c1c(NC(=O)C2=C(C)N=C(S)NC2c2ccccc2C(F)(F)F)sc(C)c1C` (stereo not drawn), the EC50 in [1] is 2.4 µM (active); in [2] it was > 60 µM (not active).
`COc1ccc(Cn2c(-c3ccc(Br)cc3)c[n+]3ccccc23)cc1`: the EC50 is 0.822 µM (active) in [1] and > 30 µM (not active) in series [2].
With `O=C(COc1ccc([N+](=O)[O-])cc1)N[N-][C+]1CCCC1`, the AC50 on Cytochrome P450 2C19 (read-out: AC50) was 1.78 µM (inconclusive); on Cytochrome P450 2C9 it was 0.0251 µM (inconclusive).
As to `CCN(CC)CCN(C(=O)c1ccc(S(=O)(=O)N(C)C2CCCCC2)cc1)c1nc2ccc(OC)cc2s1`, the EC50 in [1] is 0.105 µM (active); in series [2], > 60 µM (not active).
With `Cc1ccc(S(=O)ON2CCC(C(=O)O)(c3ccccc3)CC2)cc1` (stereo not drawn), on Cytochrome P450 2C19, the AC50 entry was “inconclusive”.
For `O=C(CCCn1cnc([N+](=O)[O-])n1)Nc1ccc(Cl)cc1Cl`, the values for the EC50 in series [1] and in [2] were 0.132 µM (active) and > 60 µM (inconclusive), respectively.
As for `COc1cc(CN2CCN(C(=O)COc3ccccc3)CC2)cc(OC)c1OC`, the AC50 at Cytochrome P450 3A4 and on Cytochrome P450 2C9 was 22.4 µM (inconclusive) in each case.
Take `C=C(CC1(C(C)NP(=O)(c2ccccc2)c2ccccc2)CC1)c1ccccc1` (stereo not drawn): on Cytochrome P450 2D6, the AC50 was 39.8 µM (inconclusive).
As to `CS(=O)(=O)N1CCC[C@@]2(CCN(C(=O)Nc3cccc(C#N)c3)C2)C1`, the AC50 at Cytochrome P450 3A4 is 20 µM (inconclusive).
`CCN1C(=O)C(CC(=O)Nc2ccc(OC)cc2)N(Cc2cccnc2)C1=S` (stereo not drawn): the AC50 on Cytochrome P450 2C9 is 10 µM (inconclusive).
`COc1ncc2nc(-c3ccc(Cl)cc3)c(=O)n(Cc3cccs3)c2n1`: the AC50 on Cytochrome P450 2D6 was 2.51 µM (inconclusive); at Cytochrome P450 2C9, 15.8 µM (inconclusive).
Regarding `Cn1c(=O)c(-c2ccc(F)c(F)c2)nc2cncnc21`, the AC50 on Cytochrome P450 3A4 is 20 µM (inconclusive).
For the molecule `c1ccc(-c2nc3ccccc3o2)nc1`, the AC50 on Cytochrome P450 2C9 was 39.8 µM (inconclusive).
Consider `Fc1ccc(N=C(S)NCCc2ccccc2)c(F)c1F`, for which the AC50 on Cytochrome P450 2D6 is 15.8 µM (inconclusive).
Turning to `O=C(O)C/C(=C\c1ccco1)C(=O)O`, the AC50 entry at Cytochrome P450 2C19 was “inconclusive”.
Turning to `Cc1ccc(-n2nnnc2Sc2nc([N+](=O)[O-])nn2C)cc1C`, the AC50 on Cytochrome P450 2C9 is 1.58 µM (inconclusive).
`Cc1cc2nc(SCCOC(=O)Nc3ccc(Cl)cc3)nc(C)c2cc1C`: the AC50 at Cytochrome P450 2C9 is 2.82 µM (inconclusive).
For `COc1cccc(NC(=S)N2CCn3cccc3C2c2cccnc2)c1` (stereo not drawn), the EC50 in series [1] was 1.12 µM (active); in series [2] it was > 60 µM (not active).
As to `CC1=CC(=C(C#N)c2nc3ccccc3s2)C=C(C)N1Cc1ccco1`, the EC50 in series [1] was 1.75 µM (active); in series [2], > 30 µM (not active).
Take `Cc1cnc(CNc2cc(-c3ccccc3CN(C)C)ncn2)cn1`: the AC50 on Cytochrome P450 2D6 is 12.6 µM (inconclusive).
Consider `Cc1ccc2c(c1)N(CC(=O)N1CCCCC1c1cccnc1)C(=O)CO2` (stereo not drawn), for which the half-maximal effective concentration (EC50) in series [1] is 0.482 µM (active); in series [2], > 60 µM (not active).
Turning to `COC(=O)[C@@]1(Cc2ccc(OC)cc2)[C@@H]2[C@@H](CC(=O)[C@H]2CC(=O)C(=O)N2CCCC2)CN1C(=O)c1ccccc1`, the AC50 is 25.1 µM (inconclusive) on Cytochrome P450 2C19 (read-out: AC50) and 20 µM (inconclusive) on Cytochrome P450 2C9.
Regarding `Cc1ccc(-c2csc(NC(=O)c3c(C)noc3C)n2)s1`, in the series with INS1, the AC50 was 3.99 µM (active).
Consider `CCN1CCN(CCC(=O)Nc2cccc(OC)c2)CC1.Cl`, for which, on Cytochrome P450 2C19, the AC50 result is reported as “inconclusive”.
In the case of `CCS(=O)(=O)c1ccc2c(c1)N(S(=O)(=O)c1ccccc1)CC(C(=O)O)O2` (stereo not drawn), the AC50 on Cytochrome P450 2C9 is 12.6 µM (inconclusive).
Consider `C=CC1=C[C@@H](O)C2OC2C12OCCCO2` (stereo partly drawn), for which the AC50 entry at Cytochrome P450 2C19 was “inconclusive”.
Turning to `Cc1cc(N/N=C/c2cccc(Cl)c2)nc(-n2nc(C)cc2C)n1`, the EC50 in series [3] is 1.34 µM (active); in the series on Streptococcus, 1.61 µM (active). Further, the AC50 in the series on INS1 was 2.69 µM (active).
In the case of `Fc1ccc(CN(C2=NCCN2)c2c(Cl)cccc2Cl)cc1`, the AC50 on Cytochrome P450 2C9 was 39.8 µM (inconclusive).
As to `Nc1ncnc2c1cnn2-c1ccccc1`, at Cytochrome P450 2C19 (read-out: AC50), the AC50 was 4.47 µM (inconclusive).
